Experimental data taken from EP1137645B1, “ALPHA-METHYLBENZYL-CONTAINING THIOUREA INHIBITORS OF HERPES VIRUSES CONTAINING A […] GROUP” (Wyeth, priority 1998, dated 2000).
In brackets after ≈: the same amount, converted by molar mass. Where two headings read alike, the source gives them in different places.

Assays:
[1] = tested on: HCMV recombinant mutant virus whose genome contains the prokaryotic beta-glucuronidase gene; assay: microbe, parasite or virus in culture; type: cell-based, human cytomegalovirus; conditions: for IC50: Human betaherpesvirus 5, Fibroblast; for IC50 ug/ml HCMV: human foreskin fibroblasts
Outline: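 Antiviral IC50 estimated from reduced reporter activity across compound amounts: lysates prepared 96 h after infection were tested with p-nitrophenyl- or methylumbelliferyl-glucuronide. Cells were human foreskin fibroblasts, infected alongside inhibitor with HCMV (e.g. RV145) expressing viral promoter-driven beta-glucuronidase.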

[2] = tested on: HSV- I; assay: HSV antiviral (ELISA) assay; type: cell-based; conditions: for IC50: read-out: IC50 (ug/ml) HSV
Outline: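 IC50 from fluorescence versus untreated control in a cell ELISA: anti-glycoprotein D antibody, β-galactosidase-conjugated secondary, 4-methyl umbelliferone read at 365/450 nm. Vero cells (2% FBS DMEM) received compound 30 min pre-infection with HSV-1 at MOI 0.006, fixed ~24 h post-infection.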

[3] = tested on: VZV strain Ellen; assay: VZV antiviral (ELISA) assay; type: cell-based
Outline: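 HFF cells infected with VZV Ellen at multiplicity below 0.1 overnight, then mixed infected/uninfected cells seeded with compound in DMEM/2% FBS and incubated three days at 37°C, 5% CO2.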

[4] = read-out: IC50 ug/ml HCMV, HCMV, human foreskin fibroblasts
[5] = Human alphaherpesvirus 3, HFF, read-out: IC50 (ug/ml) VZV, VZV strain Ellen, HFF cells, ELISA
[6] = Human alphaherpesvirus 3, HFF, read-out: % inhibition 10 ug/ml VZV
[7] = Human alphaherpesvirus 3, HFF, read-out: IC50 (ug/ml) VZV
[8] = Human alphaherpesvirus 3, VZV strain Ellen, HFF cells, ELISA, read-out: IC50 (ug/ml) VZV
[9] = VZV strain Ellen, HFF cells, ELISA

Compound	IC50 [1, 4] [µg/mL]	IC50 ([2]; Vero) [µg/mL]	IC50 [3, 5] [µg/mL]	IC50 ([2]; HSV- I, Vero cells, ELISA) [µg/mL]	inhibition at 10 µg/mL [3, 6] [%]	IC50 [3, 7] [µg/mL]	also measured
CC(NC(=S)Nc1ccc(NC(=O)c2ccccc2F)cc1)c1ccc(S(=O)(=O)N(C)C)cc1 (centres unmarked) [Example 1008, N-(4-{3-[1-(4-Dimethylsulfamoyl-phenyl)-ethyl]-thioureido}-phenyl)-2-fluoro-benzamide]	8.5 (≈ 17 µM)	> 10	> 10	–	–	–	–
CC(NC(=S)Nc1ccc(NC(=O)c2ccccc2F)cc1)c1cccc(Cl)c1 (centres unmarked) [Example 779, N-(4-{3-[1-(3-Chloro-phenyl)-ethyl]-thioureido}-phenyl)-2-fluoro-benzamide]	1.2 (≈ 2.8 µM)	> 10	> 7.5	–	–	–	–
COc1cc(OC)c(NC(=S)Nc2ccc(NC(=O)c3cccc(C(=O)O)c3)cc2)cc1Cl [Example 209, N-{4-[3-(5-Chloro-2,4-dimethoxy-phenyl)-thioureido]-phenyl}-isophthalamic acid]	> 50	–	–	> 50	22	> 10	–
COc1cc(OC)c(NC(=S)Nc2ccc(NC(=O)c3ccccc3F)c(Cl)c2)cc1Cl [Example 278, N-{2-Chloro-4-[3-(5-chloro-2,4-dimethoxy-phenyl)-thioureido]-phenyl}-2-fluoro-benzamide]	> 10	–	–	> 10	15	> 10	–
Nc1ccc(NC(=S)Nc2ccc(NC(=O)c3ccccc3F)cc2)cc1Cl [Example 404, N-{4-[3-(4-Amino-3-chloro-phenyl)-thioureido]-phenyl}-2-fluoro-benzamide]	8 (≈ 19.3 µM)	–	–	0.4 (≈ 0.964 µM)	15	> 10	–
O=C(Nc1ccc(NC(=S)Nc2ccccc2)cc1)c1ccccc1F [Example 859, 2-Fluoro-N-[4-(3-phenyl-thioureido)-phenyl]-benzamide]	–	–	–	> 10	–	–	IC50 ([1]; read-out: IC50 ug/ml HCMV): > 10 µg/mL; inhibition at 10 µg/mL ([3]; Human alphaherpesvirus 3, read-out: % inhibition 10 ug/ml VZV, 10 ug/ml, VZV strain Ellen, HFF cells, ELISA): 20%; IC50 [3, 8]: > 10 µg/mL
CC(NC(=S)Nc1ccc(NC(=O)c2ccccc2F)cc1)c1ccc(S(=O)(=O)N2CCCCC2)cc1 (centres unmarked) [Example 1009, 2-Fluoro-N-[4-(3-{1-[4-(piperidine-1-sulfonyl)-phenyl]-ethyl}-thioureido)-phenyl]-benzamide]	> 10	> 10	> 10	–	–	–	–
CC(C)CN(C)c1cc(NC(=S)Nc2ccc(NC(=O)c3ccccc3F)cc2)cc(C(F)(F)F)c1 [Example 596, 2-Fluoro-N-(4-{3-[3-(isobutyl-methyl-amino)-5-trifluoromethyl-phenyl]-thioureido}-phenyl)-benzamide]	2 (≈ 3.86 µM)	> 10	> 10	–	–	–	–
CC(C)c1cccc(NC(=S)Nc2ccc(NC(=O)c3ccccc3F)cc2)c1 [Example 452, 2-Fluoro-N-{4-[3-(3-isopropyl-phenyl)-thioureido]-phenyl}-benzamide]	2 (≈ 4.91 µM)	–	–	4 (≈ 9.82 µM)	75	1 (≈ 2.45 µM)	–
COc1ccc(NC(=S)Nc2ccc(NC(=O)c3ccccc3OC)cc2)cc1Cl [Example 818, N-{4-[3-(3-Chloro-4-methoxy-phenyl)-thioureido]-phenyl}-2-methoxy-benzamide]	4 (≈ 9.05 µM)	–	–	1.2 (≈ 2.72 µM)	32	> 10	–
COc1cc(OC)c(NC(=S)Nc2ccc(NC(=O)c3ccccc3C)cc2)cc1Br [Example 829, N-{4-[3-(5-Bromo-2,4-dimethoxy-phenyl)-thioureido]-phenyl}-2-methyl-benzamide]	10 (≈ 20 µM)	–	–	0.25 (≈ 0.5 µM)	50	> 15	–
CC(C)C(NC(=S)Nc1ccc(NC(=O)c2ccccc2F)cc1)c1ccc(F)cc1 (centres unmarked) [Example 790, 2-Fluoro-N-(4-{3-[1-(4-fluoro-phenyl)-2-methyl-propyl]-thioureido}-phenyl)-benzamide]	1.5 (≈ 3.41 µM)	> 10	2.5 (≈ 5.69 µM)	–	–	–	–
O=C(Nc1ccc(NC(=S)NC(Cc2ccccc2)c2ccc(F)cc2)cc1)c1ccccc1F (centres unmarked) [Example 774, 2-Fluoro-N-(4-{3-[1-(4-fluoro-phenyl)-2-phenyl-ethyl]-thioureido}-phenyl)-benzamide]	0.5 (≈ 1.03 µM)	> 10	> 7.5	–	–	–	–
COc1cc(OC)c(NC(=S)Nc2ccc(NC(=O)c3ccccc3)cc2)cc1Cl [Example 122, N-{4-[3-(5-Chloro-2,4-dimethoxy-phenyl)-thioureido]-phenyl}-benzamide]	4 (≈ 9.05 µM)	–	–	0.3 (≈ 0.679 µM)	13	> 10	–
O=C(Nc1ccc(NC(=S)NCc2ccc(Cl)c(Cl)c2)cc1)c1ccccc1F [Example 538, N-{4-[3-(3,4-Dichloro-benzyl)-thioureido]-phenyl}-2-fluoro-benzamide]	> 10	> 10	10 (≈ 22.3 µM)	–	–	–	–
CCCCNS(=O)(=O)c1cccc(NC(=S)Nc2ccc(NC(=O)c3ccccc3F)cc2)c1 [Example 966, N-{4-[3-(3-Butylsulfamoyl-phenyl)-thioureido]-phenyl}-2-fluoro-benzamide]	2.5 (≈ 4.99 µM)	–	–	7 (≈ 14 µM)	95	8 (≈ 16 µM)	–
CC(C)COc1ccc(NC(=S)Nc2ccc(NC(=O)c3ccccc3F)cc2)cc1Cl [Example 994, N-{4-[3-(3-Chloro-4-isobutoxy-phenyl)-thioureido]-phenyl}-2-fluoro-benzamide]	> 10	> 10	> 10	–	–	–	–
N-{4-[3-(3-Chloro-4-methoxy-phenyl)-thioureido]-phenyl}-4-methoxy-benzamide [Example 821]	–	–	–	–	–	–	IC50 ug/ml HCMV [1]: 1 µg/mL; IC50 (ug/ml) HSV ([2]; HSV- I, Vero cells, ELISA): 0.15 µg/mL; % inhibition 10 ug/ml VZV ([3]; 10 ug/ml, VZV strain Ellen, HFF cells, ELISA): 55%; IC50 (ug/ml) VZV [3, 9]: >10 µg/mL
CC(NC(=S)Nc1ccc(NC(=O)c2cccc(Cl)c2)cc1)c1ccc(F)cc1 (centres unmarked) [Example 761, 3-Chloro-N-(4-{3-[1-(4-fluoro-phenyl)-ethyl]-thioureido}-phenyl)-benzamide]	1.5 (≈ 3.51 µM)	10 (≈ 23.4 µM)	> 10	–	–	–	–
C[C@@H](NC(=S)Nc1ccc(NC(=O)c2ccccc2F)cc1)c1ccc(Cl)cc1 [Example 1014, N-(4-{3-[(1R)-1-(4-Chloro-phenyl)-ethyl]-thioureido}-phenyl)-2-fluoro-benzamide]	2.9 (≈ 6.78 µM)	> 10	> 7.5	–	–	–	–
COc1cc(OC)c(NC(=S)Nc2ccc(NC(=O)c3cccc(OC(F)(F)F)c3)cc2)cc1Cl [Example 256, N-{4-[3-(5-Chloro-2,4-dimethoxy-phenyl)-thioureido]-phenyl}-3-trifluoro-methoxy-benzamide]	9 (≈ 17.1 µM)	–	–	2 (≈ 3.8 µM)	15	> 10	–
CN(C)CCSCC(=O)Nc1ccc(NC(=S)Nc2ccc(NC(=O)c3ccccc3F)cc2)cc1Cl [Example 373, N-[4-(3-{3-Chloro-4-[2-(2-dimethylamino-ethylsulfanyl)-acetylamino]-phenyl}-thioureido)-phenyl]-2-fluoro-benzamide]	6 (≈ 10.7 µM)	–	–	9 (≈ 16.1 µM)	4	> 10	–
O=C(CN1CCCC1)Nc1ccc(NC(=S)Nc2ccc(NC(=O)c3ccccc3F)cc2)cc1Cl [Example 417, N-(4-{3-[3-Chloro-4-(2-pyrrolidin-1-yl-acetylamino)-phenyl]-thioureido}-phenyl)-2-fluoro-benzamide]	> 10	–	–	6 (≈ 11.4 µM)	15	> 10	–
COc1cc(OCC(F)(F)F)ccc1NC(=S)Nc1ccc(NC(=O)c2ccccc2F)cc1 [Example 1006, 2-Fluoro-N-(4-{3-[2-methoxy-4-(2,2,2-trifluoro-ethoxy)-phenyl]-thioureido}-phenyl)-benzamide]	–	–	–	8.3 (≈ 16.8 µM)	–	–	IC50 ([1]; read-out: IC50 ug/ml HCMV): 8.9 µg/mL (≈ 18 µM); IC50 [3, 8]: 11 µg/mL (≈ 22.3 µM)
CC(NC(=S)Nc1ccc(NC(=O)c2ccccc2C(F)(F)F)cc1)c1cc2ccccc2o1 (centres unmarked) [Example 974, N-{4-[3-(1-Benzofuran-2-yl-ethyl)-thioureido]-phenyl}-2-trifluoromethyl-benzamide]	> 10	> 10	> 7.5	–	–	–	–
N-(4-{3-[1-(4-Bromo-phenyl)-ethyl]-thioureido}-phenyl)-2-methoxy-benzamide [Example 1019]	–	–	–	–	–	–	IC50 ug/ml HCMV [1]: 2.6 µg/mL; IC50 (ug/ml) HSV ([2]; HSV- I, Vero cells, ELISA): >10 µg/mL; IC50 (ug/ml) VZV [3, 9]: 0.05 µg/mL
Cc1ccc(C(C)NC(=S)Nc2ccc(NC(=O)c3ccccc3F)cc2)cc1 (centres unmarked) [Example 782, 2-Fluoro-N-{4-[3-(1-p-tolyl-ethyl)-thioureido]-phenyl}-benzamide]	0.9 (≈ 2.21 µM)	> 10	3 (≈ 7.36 µM)	–	–	–	–
CN(c1ccc(NC(=S)Nc2ccc(NC(=O)c3ccccc3F)cc2)cc1Cl)C1CCN(Cc2ccccc2)C1 (centres unmarked) [Example 857, N-[4-(3-{4-[(1-Benzyl-pyrrolidin-3-yl)-methyl-amino]-3-chloro-phenyl)-thioureido)-phenyl]-2-fluoro-benzamide]	6 (≈ 10.2 µM)	–	–	2 (≈ 3.4 µM)	80	7 (≈ 11.9 µM)	–
